Measurements: PubChem BioAssay AID248 (DTP/NCI, 2004)
Values joined by “and” are separate entries in the source; they are usually repeats but may differ in a detail not shown here. Equal entries are not always repeated. Toxic doses and inconclusive results are not listed.

Tested on: L1210 leukemia ip in BDF1 mice, survival T/C
Assay: NCI In Vivo Anticancer Drug Screen. Data for tumor model L1210 Leukemia (intraperitoneal) in B6D2F1 (BDF1) mice
Settings: endpoint: mean survival time, higher = longer survival
Method in brief: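 Tumor cells were implanted, animals were treated, and survival was followed. The result divides the treated measurement by the vehicle-control measurement.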

[1] = dose: 100.0 mg/kg/injection, schedule: Q04DX002 (ip), vehicle: Klucel (hydroxypropylcellulose) (HPC)
[2] = dose: 200.0 mg/kg/injection, schedule: Q04DX002 (ip), vehicle: Klucel (hydroxypropylcellulose) (HPC)
[3] = dose: 400.0 mg/kg/injection, schedule: Q04DX002 (ip), vehicle: Klucel (hydroxypropylcellulose) (HPC)
[4] = dose: 200.0 mg/kg/injection, schedule: Q01DX009 (ip), vehicle: Klucel (hydroxypropylcellulose) (HPC)
[5] = dose: 100.0 mg/kg/injection, schedule: Q01DX009 (ip), vehicle: Klucel (hydroxypropylcellulose) (HPC)
[6] = dose: 400.0 mg/kg/injection, schedule: Q01DX009 (ip), vehicle: Klucel (hydroxypropylcellulose) (HPC)
[7] = dose: 100.0 mg/kg/injection, schedule: Q04DX002 (ip), vehicle: saline with Tween-80
[8] = dose: 100.0 mg/kg/injection, schedule: Q04DX003 (ip), vehicle: saline
[9] = dose: 200.0 mg/kg/injection, schedule: Q04DX003 (ip), vehicle: saline
[10] = dose: 400.0 mg/kg/injection, schedule: Q04DX003 (ip), vehicle: saline

SMILES: COc1ccc(NC(=O)Nc2ccc(C3=NCCN3)cc2)cc1NC(=O)Nc1ccc(C2=NCCN2)cc1
- T/C (dose: 8.0 mg/kg/injection, schedule: Q01DX Z (ip), vehicle: carboxymethylcellulose (CMC)): 107 % of control
- T/C (dose: 16.0 mg/kg/injection, schedule: Q01DX Z (ip), vehicle: carboxymethylcellulose (CMC)): 102 % of control
- T/C (dose: 31.0 mg/kg/injection, schedule: Q01DX Z (ip), vehicle: carboxymethylcellulose (CMC)): 100 % of control
- T/C (dose: 62.0 mg/kg/injection, schedule: Q01DX Z (ip), vehicle: carboxymethylcellulose (CMC)): 104 % of control
- T/C (dose: 125.0 mg/kg/injection, schedule: Q01DX Z (ip), vehicle: carboxymethylcellulose (CMC)): 102 % of control

SMILES: O=C(O)C(Br)CCCCC(Br)C(=O)O (stereo not given)
- T/C (dose: 100.0 mg/kg/injection, schedule: Q01DX001 (ip), vehicle: steriod suspending solution): 105 % of control
- T/C (dose: 200.0 mg/kg/injection, schedule: Q01DX001 (ip), vehicle: steriod suspending solution): 97 % of control
- T/C (dose: 400.0 mg/kg/injection, schedule: Q01DX001 (ip), vehicle: steriod suspending solution): 105 % of control

SMILES: NCCC1=NCCN1
- T/C [1]: 100 % of control
- T/C [2]: 104 % of control
- T/C [3]: 104 % of control

SMILES: O=C(N/N=C/C1CCCCC1)C(=O)N/N=C/C1CCCCC1
- T/C (dose: 12.5 mg/kg/injection, schedule: Q01DX009 (ip), vehicle: Klucel (hydroxypropylcellulose) (HPC)): 90 % of control
- T/C (dose: 25.0 mg/kg/injection, schedule: Q01DX009 (ip), vehicle: Klucel (hydroxypropylcellulose) (HPC)): 96 % of control and 89 % of control
- T/C [4]: 89 % of control

SMILES: [Co+2].[NH-]C(CC(N)=O)C(=O)O.[NH-]C(CC(N)=O)C(=O)O (stereo not given)
- T/C (dose: 100.0 mg/kg/injection, schedule: Q04DX002 (ip), vehicle: saline): 108 % of control
- T/C (dose: 200.0 mg/kg/injection, schedule: Q04DX002 (ip), vehicle: saline): 86 % of control

SMILES: COc1cc2cncc(CC(=O)c3ccc4c(c3)OCO4)c2cc1OC
- T/C (dose: 100.0 mg/kg/injection, schedule: Q04DX003 (ip), vehicle: saline with Tween-80): 106 % of control
- T/C (dose: 200.0 mg/kg/injection, schedule: Q04DX003 (ip), vehicle: saline with Tween-80): 88 % of control

SMILES: CCCC(=O)Nc1cc2c3c(c1)CCCN3CCC2
- T/C (dose: 50.0 mg/kg/injection, schedule: Q01DX009 (ip), vehicle: saline with Tween-80): 96 % of control

SMILES: Clc1ccc(C2(CBr)OCCO2)cc1
- T/C [5]: 98 % of control and 105 % of control
- T/C [1]: 95 % of control and 100 % of control
- T/C [4]: 101 % of control and 91 % of control
- T/C [2]: 97 % of control and 98 % of control
- T/C [6]: 97 % of control and 98 % of control
- T/C [3]: 98 % of control and 108 % of control

SMILES: COc1ccc(Cc2nc3ccc(Cl)cc3[nH]2)cc1
- T/C (dose: 100.0 mg/kg/injection, schedule: Q04DX003 (ip), vehicle: other): 101 % of control
- T/C (dose: 200.0 mg/kg/injection, schedule: Q04DX003 (ip), vehicle: other): 98 % of control
- T/C (dose: 400.0 mg/kg/injection, schedule: Q04DX003 (ip), vehicle: other): 98 % of control

SMILES: Oc1ccc2ccccc2c1/C=N\Nc1ccccn1
- T/C [7]: 92 % of control
- T/C (dose: 200.0 mg/kg/injection, schedule: Q04DX002 (ip), vehicle: saline with Tween-80): 92 % of control
- T/C (dose: 400.0 mg/kg/injection, schedule: Q04DX002 (ip), vehicle: saline with Tween-80): 89 % of control

SMILES: CC1(C#N)CCc2c(ccc3ccccc23)C1=O (stereo not given)
- T/C (dose: 100.0 mg/kg/injection, schedule: Q01DX009 (ip), vehicle: saline): 95 % of control
- T/C [8]: 96 % of control
- T/C (dose: 200.0 mg/kg/injection, schedule: Q01DX009 (ip), vehicle: saline): 95 % of control
- T/C [9]: 94 % of control
- T/C [10]: 101 % of control

SMILES: CCCCC(CCCC)c1ccccn1
- T/C [8]: 97 % of control
- T/C [9]: 97 % of control
- T/C [10]: 93 % of control

SMILES: CCCCCCCCSC(=S)S.[Fe]
- T/C [1]: 88 % of control
- T/C [2]: 95 % of control
- T/C [3]: 91 % of control

SMILES: O=C(COc1cc(Cl)c(Cl)cc1Cl)Nc1cccc(O)c1
- T/C [5]: 101 % of control
- T/C [4]: 96 % of control
- T/C [6]: 115 % of control

SMILES: NC(N)=N/C(N)=N/Nc1ccc([N+](=O)[O-])cc1[N+](=O)[O-]
- T/C (dose: 12.5 mg/kg/injection, schedule: Q04DX002 (ip), vehicle: saline with Tween-80): 98 % of control
- T/C (dose: 25.0 mg/kg/injection, schedule: Q04DX002 (ip), vehicle: saline with Tween-80): 93 % of control
- T/C [7]: 88 % of control

SMILES: N#CC(NC(=O)c1ccccc1)SCc1ccccc1 (stereo not given)
- T/C (dose: 25.0 mg/kg/injection, schedule: Q04DX002 (ip), vehicle: Klucel (hydroxypropylcellulose) (HPC)): 107 % of control
- T/C (dose: 50.0 mg/kg/injection, schedule: Q04DX002 (ip), vehicle: Klucel (hydroxypropylcellulose) (HPC)): 91 % of control
- T/C [1]: 91 % of control

SMILES: O=C(NP(=O)(N1CC1)N1CC1)OCc1ccccc1
- T/C (dose: 3.0 mg/kg/injection, schedule: Q01DX Z (ip), vehicle: saline): 118 % of control and 122 % of control
- T/C (dose: 3.13 mg/kg/injection, schedule: Q01DX006 (iv), vehicle: clinical formulation): 118 % of control
- T/C (dose: 3.13 mg/kg/injection, schedule: Q01DX009 (ip), vehicle: saline): 118 % of control and 120 % of control
- T/C (dose: 6.0 mg/kg/injection, schedule: Q01DX Z (ip), vehicle: saline): 104 % of control
- T/C (dose: 6.25 mg/kg/injection, schedule: Q01DX006 (iv), vehicle: clinical formulation): 115 % of control
- T/C (dose: 6.25 mg/kg/injection, schedule: Q01DX009 (ip), vehicle: saline): 109 % of control and 121 % of control
- T/C (dose: 10.0 mg/kg/injection, schedule: Q01DX006 (iv), vehicle: saline): 117 % of control
- T/C (dose: 12.0 mg/kg/injection, schedule: Q01DX Z (ip), vehicle: saline): 196 % of control
- T/C (dose: 12.5 mg/kg/injection, schedule: Q01DX001 (ip), vehicle: saline): 93 % of control
- T/C (dose: 12.5 mg/kg/injection, schedule: Q01DX006 (iv), vehicle: clinical formulation): 120 % of control
- T/C (dose: 12.5 mg/kg/injection, schedule: Q01DX009 (ip), vehicle: saline): 97 % of control and 114 % of control
- T/C (dose: 20.0 mg/kg/injection, schedule: Q01DX006 (iv), vehicle: saline): 117 % of control
- T/C (dose: 25.0 mg/kg/injection, schedule: Q01DX001 (ip), vehicle: saline): 93 % of control
- T/C (dose: 25.0 mg/kg/injection, schedule: Q01DX009 (ip), vehicle: saline): 101 % of control and 109 % of control
- T/C (dose: 48.0 mg/kg/injection, schedule: Q01DX Z (ip), vehicle: saline): 123 % of control
- T/C (dose: 50.0 mg/kg/injection, schedule: Q01DX001 (ip), vehicle: saline): 103 % of control
- T/C (dose: 50.0 mg/kg/injection, schedule: Q01DX006 (iv), vehicle: clinical formulation): 153 % of control
- T/C (dose: 50.0 mg/kg/injection, schedule: Q01DX009 (ip), vehicle: saline): 124 % of control
- T/C (dose: 50.0 mg/kg/injection, schedule: Q01DX010 (oral), vehicle: saline): 100 % of control
- T/C (dose: 80.0 mg/kg/injection, schedule: Q01DX006 (iv), vehicle: saline): 156 % of control
- T/C (dose: 100.0 mg/kg/injection, schedule: Q01DX001 (ip), vehicle: saline): 98 % of control
- T/C (dose: 100.0 mg/kg/injection, schedule: Q01DX010 (oral), vehicle: saline): 111 % of control
- T/C (dose: 200.0 mg/kg/injection, schedule: Q01DX010 (oral), vehicle: saline): 105 % of control
- T/C (dose: 400.0 mg/kg/injection, schedule: Q01DX010 (oral), vehicle: saline): 106 % of control

SMILES: Clc1ccccc1C(N=Cc1ccc[nH]1)(c1ccccc1)c1ccccc1
- T/C (dose: 100.0 mg/kg/injection, schedule: Q04DX003 (ip), vehicle: Klucel (hydroxypropylcellulose) (HPC)): 90 % of control
- T/C (dose: 200.0 mg/kg/injection, schedule: Q04DX003 (ip), vehicle: Klucel (hydroxypropylcellulose) (HPC)): 93 % of control
- T/C (dose: 400.0 mg/kg/injection, schedule: Q04DX003 (ip), vehicle: Klucel (hydroxypropylcellulose) (HPC)): 93 % of control

SMILES: CN/N=C1\CCC2C3CCc4cc(O)ccc4C3CCC12C (stereo not given)
- T/C [5]: 95 % of control
- T/C [4]: 89 % of control
